Values of other authors, collected in patent publication US20220386610A1, “FUNGICIDAL COMBINATIONS” (UPL Corporation Limited, priority 2019, published 2022).

System: soybean rust
Details: for control: 2012/13 season

Compound	control [%]	efficiency (reduced level) (after ten seasons) [%]	efficiency (starting level) (before the reduction over ten seasons) [%]
CC(C1CC1)C(O)(Cn1cncn1)c1ccc(Cl)cc1 (stereo not shown) [cyproconazole]	38		
CC(C)(C)C(O)(CCc1ccc(Cl)cc1)Cn1cncn1 (stereo not shown) [tebuconazole]	42	24	90
